# How the values were obtained:
# [1] = tested on: SAGPY (Sagittaria pygmaea); test: Flooded paddy, preemergence weed control; type: in vivo, L.; conditions: rated 3-4 weeks after treatment, 0-9 rating scale
# Outline: (§1)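 Scoring used a 0-9 visual scale relative to control. Before that, seeds or propagules were planted shallowly in silt loam and flooded to 1.5–3 cm, a depth maintained throughout, with greenhouse care during the test.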
# [2] = tested on: GALAP (Galium aparine); test: Preemergence herbicidal evaluation; type: in vivo; conditions: preemergence, rated 4-5 weeks after treatment
# Outline: (§2)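 Applied before emergence as an aqueous acetone spray over seeded soil. Read-out: 0–9 visual rating covering plant stand, vigor, size, chlorosis, malformation and overall appearance compared with control, taken 4–5 weeks after spraying.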
# [3] = tested on: ECHORC (Echinochloa oryzoides); test: Flooded paddy, preemergence weed control; type: in vivo, Echinochloa oryzoides (Ard.) Fritsch.; conditions: rated 3-4 weeks after treatment, 0-9 rating scale
# Outline: as §1
# [4] = tested on: ZEAMX (Corn, Field); test: Preemergence herbicidal evaluation; type: in vivo, Zea mays, L.; conditions: preemergence, rated 4-5 weeks after treatment
# [5] = tested on: IPOHE (Ipomoea hederacea); test: Postemergence herbicidal evaluation; type: in vivo, (L.) Jacq.; conditions: postemergence
# Outline: (§3)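 Seedlings grown about two weeks in flats, sprayed, then kept under standard greenhouse care. Rated visually 4–5 weeks after treatment on a 0–9 scale (stand, vigour, malformation, size, chlorosis, overall appearance) relative to untreated control; repeat tests averaged.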
# [6] = tested on: CHEAL (Chenopodium album); test: Postemergence herbicidal evaluation; type: in vivo, L.; conditions: postemergence
# Outline: as §3
# [7] = tested on: CASOB (Cassia obtusifolia); test: Postemergence herbicidal evaluation; type: in vivo, L.; conditions: postemergence
# Outline: as §3
# [8] = tested on: AMBEL (Ambrosia artemisifolia); test: Postemergence herbicidal evaluation; type: in vivo, L.; conditions: postemergence
# Outline: as §3
# [9] = tested on: ABUTH (Abutilon theophrasti); test: Postemergence herbicidal evaluation; type: in vivo, Medic.; conditions: postemergence
# Outline: as §3
# [10] = tested on: CHEAL (Chenopodium album); test: Preemergence herbicidal evaluation; type: in vivo, L.; conditions: preemergence, rated 4-5 weeks after treatment
# Outline: as §2
# [11] = tested on: CASOB (Cassia obtusifolia); test: Preemergence herbicidal evaluation; type: in vivo, L.; conditions: preemergence, rated 4-5 weeks after treatment
# Outline: as §2
# [12] = tested on: AMBEL (Ambrosia artemisifolia); test: Preemergence herbicidal evaluation; type: in vivo, L.; conditions: preemergence, rated 4-5 weeks after treatment
# Outline: as §2
# [13] = tested on: IPOHE (Ipomoea hederacea); test: Preemergence herbicidal evaluation; type: in vivo, (L.) Jacq.; conditions: preemergence, rated 4-5 weeks after treatment
# [14] = tested on: ZEAMX (Corn, Field); test: Postemergence herbicidal evaluation; type: in vivo, Zea mays, L.; conditions: postemergence
# Outline: as §3
# [15] = tested on: GLXMAW (Soybean, Williams); test: Postemergence herbicidal evaluation; type: in vivo, Glycine max, (L.) Merr. cv Williams; conditions: postemergence
# Outline: as §3
# [16] = tested on: GLXMAW (Soybean, Williams); test: Preemergence herbicidal evaluation; type: in vivo, Glycine max, (L.) Merr. cv Williams; conditions: preemergence, rated 4-5 weeks after treatment
# [17] = tested on: GALAP (Galium aparine); test: Postemergence herbicidal evaluation; type: in vivo; conditions: postemergence
# Outline: as §3
# [18] = tested on: CYPIR (Cyperus iria); test: Flooded paddy, preemergence weed control; type: in vivo; conditions: rated 3-4 weeks after treatment, 0-9 rating scale
# Outline: as §1
# [19] = tested on: ORYSAT (Rice, Tebonnet); test: Preemergence herbicidal evaluation; type: in vivo, Oryza sativa, (L.) Tebonnet; conditions: preemergence, rated 4-5 weeks after treatment
# [20] = tested on: ECHCG (Echinochloa crus-galli); test: Postemergence herbicidal evaluation; type: in vivo, (L.) Beau; conditions: postemergence
# Outline: as §3
smiles,measurement,setting,value
"Cn1c(C(F)(F)F)cc(=O)n(-c2ccc3snc(C4OCC(C[S+](C)[O-])O4)c3c2)c1=O (stereo not drawn) [Compound 88, 1-methyl-3-[3-[4-[(methylsulfinyl)methyl]-1,3-dioxolan-2-yl]-1,2-benzisothiazol-5-yl]-6-(trifluoromethyl)uracil]",SAGPY herbicidal rating,[1]; rate 0.0320 kg/ha,0.0
same,SAGPY herbicidal rating,[1]; rate 0.1250 kg/ha,0.0
same,Preemergence herbicidal rating GALAP,[2]; rate 0.0620 kg/ha,7.0
same,Preemergence herbicidal rating GALAP,[2]; rate 0.1250 kg/ha,9.0
same,Preemergence herbicidal rating GALAP,[2]; rate 0.2500 kg/ha,9.0
same,ECHORC herbicidal rating,[3]; rate 0.0320 kg/ha,0.0
same,ECHORC herbicidal rating,[3]; rate 0.1250 kg/ha,0.0
same,Preemergence herbicidal rating ZEAMX,[4]; rate 0.0620 kg/ha,3.5
same,Preemergence herbicidal rating ZEAMX,[4]; rate 0.1250 kg/ha,6.0
same,Preemergence herbicidal rating ZEAMX,[4]; rate 0.2500 kg/ha,7.0
same,IPOHE herbicidal rating,[5]; rate 0.0320 kg/ha,9.0
same,IPOHE herbicidal rating,[5]; rate 0.0620 kg/ha,9.0
same,CHEAL herbicidal rating,[6]; rate 0.0320 kg/ha,9.0
same,CHEAL herbicidal rating,[6]; rate 0.0620 kg/ha,9.0
same,CASOB herbicidal rating,[7]; rate 0.0320 kg/ha,5.0
same,CASOB herbicidal rating,[7]; rate 0.0620 kg/ha,9.0
same,AMBEL herbicidal rating,[8]; rate 0.0320 kg/ha,9.0
same,AMBEL herbicidal rating,[8]; rate 0.0620 kg/ha,9.0
same,ABUTH herbicidal rating,[9]; rate 0.0320 kg/ha,9.0
same,ABUTH herbicidal rating,[9]; rate 0.0620 kg/ha,9.0
same,Preemergence herbicidal rating CHEAL,[10]; rate 0.0620 kg/ha,9.0
same,Preemergence herbicidal rating CHEAL,[10]; rate 0.1250 kg/ha,9.0
same,Preemergence herbicidal rating CHEAL,[10]; rate 0.2500 kg/ha,9.0
same,Preemergence herbicidal rating CASOB,[11]; rate 0.0620 kg/ha,5.0
same,Preemergence herbicidal rating CASOB,[11]; rate 0.1250 kg/ha,9.0
same,Preemergence herbicidal rating CASOB,[11]; rate 0.2500 kg/ha,9.0
same,Preemergence herbicidal rating AMBEL,[12]; rate 0.0620 kg/ha,9.0
same,Preemergence herbicidal rating AMBEL,[12]; rate 0.1250 kg/ha,9.0
same,Preemergence herbicidal rating AMBEL,[12]; rate 0.2500 kg/ha,9.0
same,Preemergence herbicidal rating IPOHE,[13]; rate 0.0620 kg/ha,6.0
same,Preemergence herbicidal rating IPOHE,[13]; rate 0.1250 kg/ha,7.5
same,Preemergence herbicidal rating IPOHE,[13]; rate 0.2500 kg/ha,9.0
same,ZEAMX herbicidal rating,[14]; rate 0.0320 kg/ha,4.0
same,ZEAMX herbicidal rating,[14]; rate 0.0620 kg/ha,5.0
same,GLXMAW herbicidal rating,[15]; rate 0.0320 kg/ha,9.0
same,GLXMAW herbicidal rating,[15]; rate 0.0620 kg/ha,9.0
same,Preemergence herbicidal rating GLXMAW,[16]; rate 0.0620 kg/ha,9.0
same,Preemergence herbicidal rating GLXMAW,[16]; rate 0.1250 kg/ha,9.0
same,Preemergence herbicidal rating GLXMAW,[16]; rate 0.2500 kg/ha,9.0
same,GALAP herbicidal rating,[17]; rate 0.0320 kg/ha,9.0
same,GALAP herbicidal rating,[17]; rate 0.0620 kg/ha,9.0
same,CYPIR herbicidal rating,[18]; rate 0.0320 kg/ha,0.0
same,CYPIR herbicidal rating,[18]; rate 0.1250 kg/ha,9.0
same,Preemergence herbicidal rating ORYSAT,[19]; rate 0.0620 kg/ha,4.0
same,Preemergence herbicidal rating ORYSAT,[19]; rate 0.1250 kg/ha,5.0
same,Preemergence herbicidal rating ORYSAT,[19]; rate 0.2500 kg/ha,8.0
same,ECHCG herbicidal rating,[20]; rate 0.0320 kg/ha,5.0
same,ECHCG herbicidal rating,[20]; rate 0.0620 kg/ha,5.0

# Source: patent US6706663B2, “Herbicidal 3-heterocyclic substituted benzisothiazole and benzisoxazole compounds” (Wyeth, priority 2000, dated 2004)
